Measurements taken from US20050272649A1, “Conjoint administration of morphogens and ACE inhibitors in treatment of chronic renal failure” (priority 2002, published 2005).
Entries after “also recorded” stand apart in the source; their conditions may differ. Read-outs that look alike come from different tables or passages of the source.

Tests used:
[1] = system: alloxan-induced diabetic Sprague-Dawley rats; test: Alloxan-induced diabetic nephropathy model; type: in vivo, rat
Protocol: Similar to streptozotocin, alloxan kills pancreatic β cells and induces type I diabetes (for review, see Cheta et al. (1998) J Pediatr Endocrinol Metab 11: 11-9). Alloxan is also widely used to induce experimental diabetic nephropathy in animals (FIG. 25). Adult female Sprague-Dawley rats (weighing 200-250 g) were intraperitoneally injected with alloxan (70 mg/kg body weight) to induce hyperglycemia. Renal arteries were clamped just prior to injection to prevent direct nephrotoxicity, and then clamps were removed 5 minutes after injection. At week 16 when renal function declined, animals were treated with OP-1 (10 μg/kg body weight, 3×/week, or 30 μg/kg body weight, 1×/week), enalapril (100 mg/L in drinking water) or the combination of OP-1 and enalapril. Control animals without alloxan treatment were handled in all other ways like treated animals. The treatment duration was 12 weeks. All rats were sacrificed after […].

[2] = system: streptozotocin diabetic Sprague-Dawley rats; type: in vivo; settings: for GFR (ml/min/100 g bw): inulin clearance at 32 weeks; for mesangial matrix accumulation (in words): PAS / Trichrome histology at 32 weeks; for kidney weight / renal hypertrophy (in words): treatment weeks 16-32, versus vehicle-treated diabetic rats
Protocol: A long-term streptozotocin model of diabetic nephropathy was used to test and compare the therapeutic actions of BMP-7 with those of Enalapril. The study design was a treatment protocol beginning at 16 weeks when glomerular hypertrophy and proteinuria were established. The effects of therapy with BMP-7 (10, 30, or 100 μg/kg iv, biw) were compared to a maximal dose of Enalapril (20 mg/kg) and to a vehicle control. […] The GFR of 32 week diabetic Enalapril treated rats was 0.58±0.06 (not significant compared to vehicle treated and sham injected rats 0.55±0.02).
Animals: Female Sprague-Dawley rats 10 weeks of age weighing 190-220 g were used. Animals were allowed free access to standard rat chow and to tap water. Diabetes mellitus was induced by a single tail-vein injection of Streptozotocin (STZ 62 mg/kg of body weight, Sigma chemical company, St. Louis, Mo.) dissolved in normal saline at day 0. The diabetic state was confirmed 72 hours later by the determination of blood glucose concentration>300 mg/dl. From day 3, all the diabetic rats received daily subcutaneous injections of 1.0-7.0 u human recombinant long-acting insulin injection (Eli Lilly & Co., Indianapolis, Ind.) as required to maintain the blood glucose concentration between 300-500 mg/dl. Tail blood glucose levels were measured twice a week with an Accu—Chek™ Advantage meter (Roche Diagnostic Corporation, Indianapolis, Ind.). Body weights were taken once a week. Food and water intake were monitored daily.
Renal hypertrophy was well developed at 16 weeks prior to treatment with vehicle, BMP-7, or enalapril. […], animals were divided into 8 groups. Group 1 were 16 weeks of DM. Group 2 were 16 weeks normal controls. Group 3 DM animals were treated with tail-vein injection of vehicle twice a week for 16 weeks. Group 4, Group 5, and Group 6 were DM animals treated with tail-vein injections of BMP-7 100, 30, and 10 μg/kg body weight respectively twice a week for 16 weeks. Group 7 were treated with Enalapril 20 mg/kg through the drinking water for 16 weeks. […] Group 1 and Group 2 animals were sacrificed at 16 weeks. The others were sacrificed at 32 weeks. All treatments began at 16 weeks and continued through 32 weeks. Glomerular filtration rate (GFR), urine albumin excretion, kidney weight, glomerular area, mesangial matrix area, interstitial volume, monocyte and macrophage infiltration, thickness of glomerular basement membrane (GBM) and glomerulosclerosis were measured.
Renal Function: In all animals, glomerular filtration rate (GFR) was measured as the clearance of inulin. Rats were anesthetized with a Ketamine/Xylozine cocktail. A catheter was inserted into the femoral vein under a dissecting microscope for infusion. Another catheter was placed into the femoral artery for collecting blood samples. Urine was collected by bladder cannulation.
After the completion of surgery, a bolus of 2 ml/kg of 3% inulin (Cypros Pharmaceutical Corp, W. Carlsbad, Calif.) and 0.2% p-aminohippurate (PAH) in normal saline was infused as a priming load, followed by a sustaining infusion of the same solution at the rate of 8 ml/h·kg. Urine collection was initiated for three 20-minute collection periods after an hour of equilibration. An arterial blood sample was obtained during each clearance period. Plasma and urine were analyzed for inulin.
Urine volume was measured and urinary protein concentration was determined with a Bio-Rad protein assay.
Preparation of Kidneys: After the clearance studies, the rats were euthanized. Both kidneys were rapidly removed and placed in ice-cold phosphate buffered saline (PBS). Kidneys were weighed and then sliced on a cold glass plate. Two 2 mm coronal sections were immersed in Histochoice and in 10% buffered formalin. Kidney sections were embedded in paraffin and cut at 3 μm and stained with hematoxylin and eosin, Gomori's Trichrome and periodic acid Schiff (PAS).
Renal Morphology: The morphometric analysis was done in a blind manner. […]

[3] = Enalapril 20 mg/kg in drinking water (100 mg/l)
[4] = Enalapril 20 mg/kg in drinking water (100 mg/l), weeks 16-32
[5] = Enalapril 20 mg/kg in drinking water (100 mg/l), weeks 16-32, at 32 weeks
[6] = treatment weeks 16-32, listed as Enalapril

CCOC(=O)[C@H](CCc1ccccc1)N[C@@H](C)C(=O)N1CCC[C@H]1C(=O)O [enalapril, N-(1-ethoxycarbonyl-3-phenylpropyl)-L-ananyl-L-proline, reference compound]
proteinuria level (in words) ([1]; 12 weeks of treatment): reduces the proteinuria level; also recorded: reduce the preteinuria level | serum creatinine level (in words) ([1]; 12 weeks of treatment): decreases the serum creatinine level | serum creatinine level (in words) ([1]; 12 weeks of treatment, listed as elalapril): reduces the serum creatinine level at a lesser degree | proteinuria level ([1]; enalapril 100 mg/L drinking water alone, or combination of OP-1 and enalapril, 12 weeks, diabetic about 180): ~140 mg/dL/24 hr | renal BMP-7 expression (in situ hybridization) ([2]; 32 weeks): restored BMP-7 expression at high levels in the collecting duct; also recorded: restored BMP-7 expression in its normal pattern at high levels; also recorded: restored the normal distribution of BMP-7 expression | renal Wnt4 expression (in situ hybridization) ([2]; 32 weeks): without affecting Wnt4 expression; also recorded: do not affect Wnt4 expression; also recorded: had no effect on Wnt4 expression | monocyte/macrophage tubulointerstitial infiltration ([2]; ED-1 positive cells, 32 weeks): decreased the tubulointerstitial infiltration | Cause-Mortality hypoglycemia [2, 3]: 1/10 | Cause-Mortality ketoacidosis [2, 3]: 1/10 | Cause-Mortality unknown [2, 3]: 1/10 | Body Weight (g) End [2, 4]: 294.9 ± 4.4 g | Body Weight (g) Weight Gain [2, 4]: 78.7 ± 5.9 g | Protein Ex (mg/day), urine protein excretion [2, 5]: 33.59 ± 7.58 mg/day | kidney weight [2, 5]: 1.09 ± 0.04 g | kidney weight ([2]; Enalapril 20 mg/kg in drinking water (100 mg/l), weeks 16-32, at 32 weeks, listed as E): 1.09 ± 0.04 g | Mortality ([2]; Enalapril 20 mg/kg in drinking water (100 mg/l), weeks 16-32, deaths/animals): 3/10 | GFR (ml/min/100 g bw) ([2]; Enalapril 20 mg/kg in drinking water (100 mg/l), weeks 16-32, listed as E): 0.58 ± 0.06 ml/min/100 g bw | GFR (ml/min/100 g bw) ([2]; Enalapril 20 mg/kg in drinking water (100 mg/l), weeks 16-32, listed as Enalapril): 0.58±0.06 ml/min/100 g bw | cortical interstitial area / volume ([2]; Enalapril 20 mg/kg, weeks 16-32, DM vehicle 13.1±0.7%): 10.3±0.4% | mesangial matrix accumulation (in words) [2]: more mesangial matrix accumulation | mesangial matrix accumulation (in words) ([2]; listed as Enalapril): less effective than intermediate or high dose BMP-7 in eliminating accumulation of mesangial matrix | glomerulosclerosis (in words) ([2]; treatment weeks 16-32): decreased glomerular sclerosis; also recorded: markedly reduced | urine protein excretion / proteinuria / albuminuria (in words) ([2]; treatment weeks 16-32): reversed | GFR (in words) ([2]; treatment weeks 16-32, versus vehicle-treated diabetic and normal rats): normal or greater; also recorded: restored GFR to normal or slightly above normal | kidney weight / renal hypertrophy (in words) [2]: partially reversed diabetic renal hypertrophy | kidney weight / renal hypertrophy (in words) ([2]; listed as Enalapril): equal in partially reversing kidney hypertrophy; also recorded: equally effective | glomerular area / glomerular hypertrophy (in words) [2, 6]: significantly decreased; also recorded: equally effective | glomerulosclerosis (in words) [2, 6]: less effective in preventing glomerulosclerosis; also recorded: less so by Enalapril | interstitial volume (in words) [2, 6]: significantly decreased; also recorded: equally effective | systolic blood pressure (tail artery cuff) [2, 6]: controlled hypertension throughout the course of therapy; also recorded: reversed the hypertension of the diabetic rats; also recorded: normalized blood pressure during the entire 16 week course of therapy; also recorded: restored blood pressure to normal
